Here are results for 66 compounds from ChEMBL document CHEMBL3045100, “Comparative molecular similarity indices analysis of some 1-substituted imidazole analogs as Candida albicans P450-demethylase inhibitors” (2013).

The assay relates to Candida albicans. As to the kind of experiment: Antifungal activity against Candida albicans assessed as growth inhibition. It counts as functional. As to conditions: for MIC: Candida albicans.

Each structure is given as a SMILES string. ≈ marks a conversion by molar mass, not a printed value.

The MIC is the lowest concentration that inhibits growth of the organism. Consider `OC(Cn1ccnc1)c1ccc(Cl)cc1` (configuration not stated), for which the “-logMIC” value is given as 2.4 and the minimum inhibitory concentration (MIC) was 250 µg/mL (≈ 1120 µM).

On to `O=C(Cn1ccnc1)c1ccc(Cl)cc1`, for which the “-logMIC” value came to 2 and the MIC came out at 100 µg/mL (≈ 453 µM).

With `Cc1ncc([N+](=O)[O-])n1CCOC(c1ccccc1)c1cccs1` (configuration not stated), the “-logMIC” value turned out to be 2.6 and the MIC came to 400 µg/mL (≈ 1160 µM).

For `Cc1nccn1CC(=O)c1ccc(Br)cc1`, the “-logMIC” value came out at 2.48 and the minimum inhibitory concentration (MIC) is 300 µg/mL (≈ 1070 µM).

For the compound `COc1ccc(NC(=S)Nn2c(-c3ccc([N+](=O)[O-])cc3)cnc2S)cc1`, the “-logMIC” value is 0.29 and the minimum inhibitory concentration (MIC) amounted to 1.95 µg/mL (≈ 4.86 µM).

Turning to `O=[N+]([O-])c1ccc(-c2cnc(S)n2NC(=S)Nc2cccc3ccccc23)cc1`, the “-logMIC” value is reported as 2.7 and the minimum inhibitory concentration (MIC) was more than 500 µg/mL.

On to `O=C(Cn1ccnc1)c1ccc(Br)cc1`, for which the “-logMIC” value turned out to be 2.3 and the MIC is 250 µg/mL (≈ 943 µM).

With `OC(Cn1ccnc1)c1ccc(Br)cc1` (configuration not stated), the “-logMIC” value came out at 2.3 and the minimal inhibitory concentration (MIC) worked out at 200 µg/mL (≈ 749 µM).

On to `Cc1nc([N+](=O)[O-])cn1CC(CNc1ccccc1)Nc1ccccc1` (configuration not stated), for which the “-logMIC” value is recorded as 2.3 and the MIC worked out at 200 µg/mL (≈ 569 µM).

Regarding `Cc1nc([N+](=O)[O-])cn1CC(=O)CNc1ccccc1`, the “-logMIC” value is reported as 2.6 and the minimum inhibitory concentration (MIC) stood at 400 µg/mL (≈ 1460 µM).

On to `Cc1ccc(NCC(=O)Cn2cc([N+](=O)[O-])nc2C)cc1`, for which the “-logMIC” value came to 2.6 and the MIC was found to be 400 µg/mL (≈ 1390 µM).

In the case of `COc1ccccc1NCC(=O)Cn1cc([N+](=O)[O-])nc1C`, the “-logMIC” value was 2.6 and the MIC was 400 µg/mL (≈ 1310 µM).

For `Cc1nc([N+](=O)[O-])cn1CC(=O)CNc1cccc(Cl)c1`, the “-logMIC” value was 2.6 and the minimal inhibitory concentration (MIC) stood at 400 µg/mL (≈ 1300 µM).

As for `Cc1ncc([N+](=O)[O-])n1CC(=O)CNc1ccc(Cl)cc1`, the “-logMIC” value was determined as 2.6 and the MIC worked out at 800 µg/mL (≈ 2590 µM).

With `Cc1nccn1CC(=O)Nc1cccc(O)c1`, the “-logMIC” value is on record as 2.9 and the MIC was found to be 800 µg/mL (≈ 3460 µM).

For the compound `Cc1ncc([N+](=O)[O-])n1CC(=O)Nc1cccc(O)c1`, the “-logMIC” value is 2.9 and the minimal inhibitory concentration (MIC) was determined as 800 µg/mL (≈ 2900 µM).

Regarding `O=C(Cn1ccnc1)Nc1cccc(O)c1`, the “-logMIC” value came to 2.9 and the minimum inhibitory concentration (MIC) is 800 µg/mL (≈ 3680 µM).

As for `Cc1ncc([N+](=O)[O-])n1C(C)C(=O)Nc1cccc(O)c1` (configuration not stated), the “-logMIC” value was found to be 2.6 and the minimal inhibitory concentration (MIC) is 400 µg/mL (≈ 1380 µM).

For the compound `O=C(CCn1ccnc1)Nc1cccc(O)c1`, the “-logMIC” value was 2.9 and the MIC worked out at 800 µg/mL (≈ 3460 µM).

Regarding `Cc1nccn1CCC(=O)Nc1cccc(O)c1`, the “-logMIC” value is on record as 2.9 and the MIC was 800 µg/mL (≈ 3260 µM).

For `Cc1ncc([N+](=O)[O-])n1CCC(=O)Nc1cccc(O)c1`, the “-logMIC” value worked out at 2.9 and the MIC came to 800 µg/mL (≈ 2760 µM).

For the compound `Cc1ncc([N+](=O)[O-])n1CCOC(Cc1cccs1)c1ccccc1` (configuration not stated), the “-logMIC” value is listed as 2.6 and the MIC came out at 400 µg/mL (≈ 1120 µM).

For `Cc1ncc([N+](=O)[O-])n1CCOC(c1ccccc1)c1cnccn1` (configuration not stated), the “-logMIC” value came out at 2.6 and the MIC turned out to be 400 µg/mL (≈ 1180 µM).

Take `Cc1ncc([N+](=O)[O-])n1CCOC(c1ccccc1)c1ccccc1S` (configuration not stated): the “-logMIC” value worked out at 2.6 and the MIC is 400 µg/mL (≈ 1080 µM).

As to `Cc1ccccc1NC(=S)Nn1ccnc1-c1ccc(Cl)cc1`, the “-logMIC” value turned out to be 2.03 and the MIC was found to be 100 µg/mL (≈ 292 µM).

Consider `Cc1ccc(NC(=S)Nn2ccnc2-c2ccc(Cl)cc2)cc1`, for which the “-logMIC” value came out at 2.69 and the MIC came out at 500 µg/mL (≈ 1460 µM).

For `COc1ccccc1NC(=S)Nn1ccnc1-c1ccc(Cl)cc1`, the “-logMIC” value was 1.97 and the minimum inhibitory concentration (MIC) came to 100 µg/mL (≈ 279 µM).

As for `COc1ccc(NC(=S)Nn2ccnc2-c2ccc(Cl)cc2)cc1`, the “-logMIC” value amounted to 2.02 and the minimal inhibitory concentration (MIC) was determined as 100 µg/mL (≈ 279 µM).

As to `S=C(Nc1cccc2ccccc12)Nn1ccnc1-c1ccc(Cl)cc1`, the “-logMIC” value was 2.42 and the minimum inhibitory concentration (MIC) was 250 µg/mL (≈ 660 µM).

`Cc1ccccc1NC(=S)Nn1ccnc1-c1ccc(Br)cc1`: the “-logMIC” value was 2.01 and the MIC amounted to 100 µg/mL (≈ 258 µM).

Consider `Cc1ccc(NC(=S)Nn2ccnc2-c2ccc(Br)cc2)cc1`, for which the “-logMIC” value amounted to 2.41 and the minimum inhibitory concentration (MIC) was determined as 250 µg/mL (≈ 645 µM).

`COc1ccccc1NC(=S)Nn1ccnc1-c1ccc(Br)cc1`: the “-logMIC” value is recorded as 2.4 and the minimal inhibitory concentration (MIC) came out at 250 µg/mL (≈ 620 µM).

For the compound `COc1ccc(NC(=S)Nn2ccnc2-c2ccc(Br)cc2)cc1`, the “-logMIC” value is 2 and the MIC turned out to be 100 µg/mL (≈ 248 µM).

For the compound `S=C(Nc1cccc2ccccc12)Nn1ccnc1-c1ccc(Br)cc1`, the “-logMIC” value was 2.01 and the minimum inhibitory concentration (MIC) was 100 µg/mL (≈ 236 µM).

For `Cc1nc([N+](=O)[O-])cn1CCC(=O)Nc1ccccc1`, the “-logMIC” value worked out at 3 and the minimum inhibitory concentration (MIC) came out at 1000 µg/mL (≈ 3650 µM).

With `Cc1nc([N+](=O)[O-])cn1CCC(=O)Nc1ccccc1Cl`, the “-logMIC” value amounted to 2.93 and the MIC stood at 1000 µg/mL (≈ 3240 µM).

For `Cc1nc([N+](=O)[O-])cn1CCC(=O)Nc1cccc(Cl)c1`, the “-logMIC” value worked out at 2.71 and the MIC came to 500 µg/mL (≈ 1620 µM).

In the case of `Cc1nc([N+](=O)[O-])cn1CCC(=O)Nc1ccccc1S`, the “-logMIC” value turned out to be 2.68 and the MIC was determined as 500 µg/mL (≈ 1630 µM).

For `Cc1nc([N+](=O)[O-])cn1CCC(=O)Nc1ccccc1[N+](=O)[O-]`, the “-logMIC” value turned out to be 2.95 and the MIC turned out to be 1000 µg/mL (≈ 3130 µM).

As to `Cc1nc([N+](=O)[O-])cn1CCC(=O)Nc1c(Br)cc(Br)cc1Br`, the “-logMIC” value is 2.64 and the minimum inhibitory concentration (MIC) came to 500 µg/mL (≈ 979 µM).

In the case of `Cc1nc([N+](=O)[O-])cn1CCC(=O)Nc1cccc2ccccc12`, the “-logMIC” value is reported as 2.74 and the MIC was found to be 500 µg/mL (≈ 1540 µM).

On to `CCCNCCn1c([N+](=O)[O-])cnc1C`, for which the “-logMIC” value was 1.68 and the minimal inhibitory concentration (MIC) turned out to be 50 µg/mL (≈ 236 µM).

Turning to `Cc1ncc([N+](=O)[O-])n1CCNC(C)C`, the “-logMIC” value was determined as 1.39 and the MIC worked out at 25 µg/mL (≈ 118 µM).

As to `Cc1ncc([N+](=O)[O-])n1CCN(C(C)C)C(C)C`, the “-logMIC” value was found to be 1.38 and the MIC turned out to be 25 µg/mL (≈ 98.3 µM).

For `Cc1ncc([N+](=O)[O-])n1CCNc1ccccc1`, the “-logMIC” value worked out at 1.7 and the MIC came to 50 µg/mL (≈ 203 µM).

Regarding `Cc1ncc([N+](=O)[O-])n1CCNc1ccccc1[N+](=O)[O-]`, the “-logMIC” value is reported as 2 and the MIC stood at 100 µg/mL (≈ 343 µM).

As to `Cc1ncc([N+](=O)[O-])n1CCNc1ccc([N+](=O)[O-])cc1`, the “-logMIC” value amounted to 1.1 and the MIC came to 12.5 µg/mL (≈ 42.9 µM).

Regarding `Cc1ccccc1NC(=S)Nn1c(-c2ccc([N+](=O)[O-])cc2)cnc1S`, the “-logMIC” value is reported as 1.5 and the MIC is 31.2 µg/mL (≈ 81.1 µM).

Regarding `Cc1ccc(NC(=S)Nn2c(-c3ccc([N+](=O)[O-])cc3)cnc2S)cc1`, the “-logMIC” value was determined as 0.6 and the MIC was found to be 3.91 µg/mL (≈ 10.1 µM).

With `Cc1ncc([N+](=O)[O-])n1CC(O)CNCC(C)C` (configuration not stated), the “-logMIC” value was 1.99 and the MIC is 100 µg/mL (≈ 390 µM).

As for `CCCCNCC(O)Cn1c([N+](=O)[O-])cnc1C` (configuration not stated), the “-logMIC” value turned out to be 1.99 and the minimal inhibitory concentration (MIC) came to 100 µg/mL (≈ 390 µM).

Consider `Cc1ncc([N+](=O)[O-])n1CC(O)COc1ccccc1` (configuration not stated), for which the “-logMIC” value was determined as 2.06 and the MIC worked out at 100 µg/mL (≈ 361 µM).

With `Cc1ccccc1OCC(O)Cn1c([N+](=O)[O-])cnc1C` (configuration not stated), the “-logMIC” value was found to be 2 and the MIC worked out at 100 µg/mL (≈ 343 µM).

For the compound `Cc1ncc([N+](=O)[O-])n1CC(O)COc1cccc2ccccc12` (configuration not stated), the “-logMIC” value stood at 2.06 and the MIC came out at 100 µg/mL (≈ 305 µM).

As to `Cc1ncc([N+](=O)[O-])n1CC(O)COc1ccc2ccccc2c1` (configuration not stated), the “-logMIC” value turned out to be 2.69 and the MIC was found to be 500 µg/mL (≈ 1530 µM).

Turning to `Cc1ncc([N+](=O)[O-])n1CN(C(C)C)C(C)C`, the “-logMIC” value was determined as 2 and the MIC was found to be 100 µg/mL (≈ 416 µM).

Take `Cc1ncc([N+](=O)[O-])n1CNc1ccccc1`: the “-logMIC” value was 1.94 and the MIC turned out to be 100 µg/mL (≈ 431 µM).

Take `Cc1ccc(NCn2c([N+](=O)[O-])cnc2C)cc1`: the “-logMIC” value was found to be 1.98 and the MIC worked out at 100 µg/mL (≈ 406 µM).

For the compound `Cc1ncc([N+](=O)[O-])n1CNc1cccc2ccccc12`, the “-logMIC” value came to 2 and the MIC was 100 µg/mL (≈ 354 µM).

On to `Cc1nccn1CC(=O)c1ccc(Cl)cc1`, for which the “-logMIC” value is on record as 2.26 and the MIC amounted to 200 µg/mL (≈ 852 µM).

For the compound `Cc1nccn1CC(=O)c1ccc(-c2ccccc2)cc1`, the “-logMIC” value is 2.48 and the MIC turned out to be 300 µg/mL (≈ 1090 µM).

With `Cc1nccn1CC(O)c1ccc(Cl)cc1` (configuration not stated), the “-logMIC” value came to 2.31 and the minimal inhibitory concentration (MIC) is 200 µg/mL (≈ 845 µM).

For `Cc1nccn1CC(O)c1ccc(Br)cc1` (configuration not stated), the “-logMIC” value is listed as 2.35 and the MIC is 200 µg/mL (≈ 711 µM).

For the compound `Cc1nccn1CC(O)c1ccc([N+](=O)[O-])cc1` (configuration not stated), the “-logMIC” value was 2.39 and the MIC turned out to be 300 µg/mL (≈ 1210 µM).

Turning to `Cc1nccn1CC(O)c1ccc(-c2ccccc2)cc1` (configuration not stated), the “-logMIC” value is 2.33 and the minimal inhibitory concentration (MIC) stood at 200 µg/mL (≈ 719 µM).

As for `Cc1nccn1CC(=O)c1ccc([N+](=O)[O-])cc1`, the “-logMIC” value is on record as 2.9 and the MIC came to 200 µg/mL (≈ 816 µM).
